Source: patent US10287301B2 (Achillion Pharmaceuticals, Inc., priority 2015, dated 2019)
Where two headings read alike, the source gives them in different places.

Target: Human Factor D (Homo sapiens (Human), UniProt P00746)
Assay: Human Factor D Assay
Assay type: biochemical
Summary of the method: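 Thioester cleavage assay: human Factor D (serum-derived, 80 nM final), substrate Z-L-Lys-SBzl with DTNB, both 100 μM final, after 5 min compound preincubation at room temperature.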

[1] = Table 3, Human Factor D 80 nM, substrate Z-L-Lys-SBzl, read-out: IC50 (Stars)

Sequence of Human Factor D (P00746 26-253): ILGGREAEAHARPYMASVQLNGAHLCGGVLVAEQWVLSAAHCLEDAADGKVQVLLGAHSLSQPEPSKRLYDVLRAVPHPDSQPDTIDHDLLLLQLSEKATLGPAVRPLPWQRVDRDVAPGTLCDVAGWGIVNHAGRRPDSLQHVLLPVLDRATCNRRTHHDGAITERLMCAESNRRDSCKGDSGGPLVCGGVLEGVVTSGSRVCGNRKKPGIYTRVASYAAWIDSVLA

In the case of `CNS(=O)(=O)c1ccc(Cl)c(-c2cccc(NC(=O)[C@@H]3C[C@@H](F)CN3C(=O)Cn3nc(C(C)=O)c4cc(-c5cnc(C)nc5)ccc43)c2F)c1` [Compound 342, (2S,4R)-1-(2-(3-Acetyl-5-(2-methylpyrimidin-5-yl)-1H-indazol-1-yl)acetyl)-N-(2′-chloro-2-fluoro-5′-(N-methylsulfamoyl)-[1,1′-biphenyl]-3-yl)-4-fluoropyrrolidine-2-carboxamide], the IC50 [1] is reported as < 1000 nM.
With `CC(=O)c1nn(CC(=O)N2C[C@H](F)C[C@H]2C(=O)Nc2cccc(-c3cc(S(=O)(=O)N(C)C)ccc3Cl)c2F)c2ccc(-c3cnc(C)nc3)cc12` [Compound 343, (2S,4R)-1-(2-(3-Acetyl-5-(2-methylpyrimidin-5-yl)-1H-indazol-1-yl)acetyl)-N-(2′-chloro-5′-(N,N-dimethylsulfamoyl)-2-fluoro-[1,1′-biphenyl]-3-yl)-4-fluoropyrrolidine-2-carboxamide] the IC50 [1] was < 1000 nM.
With `CC(=O)c1nn(CC(=O)N2C[C@H](F)C[C@H]2C(=O)Nc2cccc(OC(F)(F)F)n2)c2ccc(-c3cnc(C)nc3)cc12` [Compound 344, (2S,4R)-1-(2-(3-Acetyl-5-(2-methylpyrimidin-5-yl)-1H-indazol-1-yl)acetyl)-4-fluoro-N-(6-(trifluoromethoxy)pyridin-2-yl)pyrrolidine-2-carboxamide] the IC50 [1] was < 1000 nM.
`CC(=O)c1nn(CC(=O)N2C[C@H](F)C[C@H]2C(=O)Nc2cc(C)cc(Br)n2)c2ccc(-c3cnc(C)nc3)cc12` [Compound 345, (2S,4R)-1-(2-(3-Acetyl-5-(2-methylpyrimidin-5-yl)-1H-indazol-1-yl)acetyl)-N-(6-bromo-4-methylpyridin-2-yl)-4-fluoropyrrolidine-2-carboxamide] was tested, and the IC50 [1] was < 1000 nM.
With `CC(=O)c1nn(CC(=O)N2C[C@H](F)[C@@H](O)[C@H]2C(=O)Nc2cccc(Br)n2)c2ccc(-c3cnc(C)nc3)cc12` [Compound 346, (2S,3S,4S)-1-(2-(3-Acetyl-5-(2-methylpyrimidin-5-yl)-1H-indazol-1-yl)acetyl)-N-(6-bromopyridin-2-yl)-4-fluoro-3-hydroxypyrrolidine-2-carboxamide] the IC50 [1] was < 1000 nM.
With `CC(=O)c1nn(CC(=O)N2C[C@H](F)C[C@H]2C(=O)Nc2cnc(C)c(Br)n2)c2ccc(-c3cnc(C)nc3)cc12` [Compound 349, (2S,4R)-1-(2-(3-Acetyl-5-(2-methylpyrimidin-5-yl)-1H-indazol-1-yl)acetyl)-N-(6-bromo-5-methylpyrazin-2-yl)-4-fluoropyrrolidine-2-carboxamide] the IC50 [1] was < 1000 nM.
`CC(=O)c1nn(CC(=O)N2[C@@H]3C[C@@H]3C[C@H]2C(=O)Nc2cncc(Br)n2)c2ccc(-c3cnc(C)nc3)cc12` [Compound 350, (1R,3S,5R)-2-(2-(3-Acetyl-5-(2-methylpyrimidin-5-yl)-1H-indazol-1-yl)acetyl)-N-(6-bromopyrazin-2-yl)-2-azabicyclo[3.1.0]hexane-3-carboxamide] was tested, and the IC50 [1] was < 1000 nM.
In the case of `COc1cc(Br)nc(NC(=O)[C@@H]2C[C@@H](F)CN2C(=O)Cn2nc(C(C)=O)c3cc(-c4cnc(C)nc4)ccc32)c1` [Compound 351], the IC50 [1] is reported as < 1000 nM.
With `CC(=O)c1nn(CC(=O)N2[C@@H]3C[C@@H]3C[C@H]2C(=O)Nc2cncc(Br)n2)c2ccc(-c3cnc(N)nc3)cc12` [Compound 352, (1R,3S,5R)-2-(2-(3-Acetyl-5-(2-aminopyrimidin-5-yl)-1H-indazol-1-yl)acetyl)-N-(6-bromopyrazin-2-yl)-2-azabicyclo[3.1.0]hexane-3-carboxamide] the IC50 [1] was < 1000 nM.
With `CC(=O)c1nn(CC(=O)N2C[C@H](F)C[C@H]2C(=O)Nc2cncc(Br)n2)c2ccc(-c3cnc(N)nc3)cc12` [Compound 353, (2S,4R)-1-(2-(3-Acetyl-5-(2-aminopyrimidin-5-yl)-1H-indazol-1-yl)acetyl)-N-(6-bromopyrazin-2-yl)-4-fluoropyrrolidine-2-carboxamide] the IC50 [1] was < 1000 nM.
For `CC(=O)c1nn(CC(=O)N2C[C@H](F)C[C@H]2C(=O)Nc2cncc(Br)n2)c2ccc(-c3cnc(C4CC4)nc3)cc12` [Compound 354, (2S,4R)-1-(2-(3-Acetyl-5-(2-cyclopropylpyrimidin-5-yl)-1H-indazol-1-yl)acetyl)-N-(6-bromopyrazin-2-yl)-4-fluoropyrrolidine-2-carboxamide], the IC50 [1] was < 1000 nM.
For `CC(=O)c1nn(CC(=O)N2C[C@H](F)C[C@H]2C(=O)Nc2nc(CC(F)(F)F)cs2)c2ccc(-c3cnc(C)nc3)cc12` [Compound 355, (2S,4R)-1-(2-(3-Acetyl-5-(2-methylpyrimidin-5-yl)-1H-indazol-1-yl)acetyl)-4-fluoro-N-(4-(2,2,2-trifluoroethyl)thiazol-2-yl)pyrrolidine-2-carboxamide], the IC50 [1] was < 1000 nM.
With `CC(=O)c1nn(CC(=O)N2[C@@H]3C[C@@H]3C[C@H]2C(=O)Nc2cncc(Br)n2)c2ccc(-c3cnc(C4CC4)nc3)cc12` [Compound 356, (1R,3S,5R)-2-(2-(3-acetyl-5-(2-cyclopropylpyrimidin-5-yl)-1H-indazol-1-yl)acetyl)-N-(6-bromopyrazin-2-yl)-2-azabicyclo[3.1.0] hexane-3-carboxamide] the IC50 [1] was < 1000 nM.
With `CC(=O)c1nn(CC(=O)N2C[C@H](F)C[C@H]2C(=O)Nc2ccn(CC(F)(F)F)n2)c2ccc(-c3cnc(C)nc3)cc12` [Compound 357, (2S,4R)-1-(2-(3-Acetyl-5-(2-methylpyrimidin-5-yl)-1H-indazol-1-yl)acetyl)-4-fluoro-N-(1-(2,2,2-trifluoroethyl)-1H-pyrazol-3-yl)pyrrolidine-2-carboxamide] the IC50 [1] was < 1000 nM.
With `CC(=O)c1nn(CC(=O)N2C[C@H](F)C[C@H]2C(=O)Nc2cccc(Br)c2Cl)c2ccc(-c3cnc(C)nc3)cc12` [Compound 358, (2S,4R)-1-(2-(3-Acetyl-5-(2-methylpyrimidin-5-yl)-1H-indazol-1-yl)acetyl)-N-(3-bromo-2-chlorophenyl)-4-fluoropyrrolidine-2-carboxamide] the IC50 [1] was < 1000 nM.
With `CC(=O)c1nn(CC(=O)N2C[C@H](F)C[C@H]2C(=O)Nc2cc(Cl)cc(Br)n2)c2ccc(-c3cnc(C)nc3)cc12` [Compound 359, (2S,4R)-1-(2-(3-Acetyl-5-(2-methylpyrimidin-5-yl)-1H-indazol-1-yl)acetyl)-N-(6-bromo-4-chloropyridin-2-yl)-4-fluoropyrrolidine-2-carboxamide] the IC50 [1] was < 1000 nM.
For `Cc1ncc(-c2ccc3c(c2)c(C(C)O)nn3CC(=O)N2C[C@H](F)C[C@H]2C(=O)Nc2cccc(Br)n2)cn1` (stereo partly drawn) [Compound 360, (2S,4R)-N-(6-bromopyridin-2-yl)-4-fluoro-1-(2-(3-(1-hydroxyethyl)-5-(2-methylpyrimidin-5-yl)-1H-indazol-1-yl)acetyl)pyrrolidine-2-carboxamide], the IC50 was 1000 to 10000 nM.
`Cc1ncc(-c2ccc3c(c2)c(C(C)O)nn3CC(=O)N2C[C@H](F)C[C@H]2C(=O)Nc2cccc(Br)n2)cn1` (stereo partly drawn) [Compound 361, (2S,4R)-N-(6-bromopyridin-2-yl)-4-fluoro-1-(2-(3-(1-hydroxyethyl)-5-(2-methylpyrimidin-5-yl)-1H-indazol-1-yl)acetyl)pyrrolidine-2-carboxamide] showed an IC50 (read-out: IC50 (Stars)) of 1000 to 10000 nM.
In the case of `CC(=O)c1nn(CC(=O)N2C[C@H](F)C[C@H]2C(=O)Nc2cccc(Br)n2)c2cc(C(=O)N(C)C)c(-c3cnc(C)nc3)cc12` [Compound 362, 3-acetyl-1-(2-((2S,4R)-2-((6-bromopyridin-2-yl)carbamoyl)-4-fluoropyrrolidin-1-yl)-2-oxoethyl)-N,N-dimethyl-5-(2-methylpyrimidin-5-yl)-1H-indazole-6-carboxamide], the IC50 [1] is reported as < 1000 nM.
`CC(=O)c1nn(CC(=O)N2[C@@H]3C[C@@H]3C[C@H]2C(=O)Nc2ccn(CC(F)(F)F)n2)c2ccc(-c3cnc(C)nc3)cc12` [Compound 363, (1R,3S,5R)-2-(2-(3-acetyl-5-(2-methylpyrimidin-5-yl)-1H-indazol-1-yl)acetyl)-N-(1-(2,2,2-trifluoroethyl)-1H-pyrazol-3-yl)-2-azabicyclo[3.1.0] hexane-3-carboxamide] was tested, and the IC50 [1] was < 1000 nM.
`CC(=O)c1nn(CC(=O)N2[C@@H]3C[C@@H]3C[C@H]2C(=O)Nc2cccc(Br)n2)c2ccc(-c3cnc(N)nc3)cc12` [Compound 364, (1R,3S,5R)-2-(2-(3-Acetyl-5-(2-aminopyrimidin-5-yl)-1H-indazol-1-yl)acetyl)-N-(6-bromopyridin-2-yl)-2-azabicyclo[3.1.0]hexane-3-carboxamide] was tested, and the IC50 [1] was < 1000 nM.
With `CC(=O)c1nn(CC(=O)N2[C@@H]3C[C@@H]3C[C@H]2C(=O)Nc2cnc(C)c(Br)n2)c2ccc(-c3cnc(C)nc3)cc12` [Compound 365, (1R,3S,5R)-2-(2-(3-Acetyl-5-(2-methylpyrimidin-5-yl)-1H-indazol-1-yl)acetyl)-N-(6-bromo-5-methylpyrazin-2-yl)-2-azabicyclo[3.1.0]hexane-3-carboxamide] the IC50 [1] was < 1000 nM.
`COc1cc(Br)nc(NC(=O)[C@@H]2C[C@H]3C[C@H]3N2C(=O)Cn2nc(C(C)=O)c3cc(-c4cnc(C)nc4)ccc32)c1` [Compound 366] was tested, and the IC50 [1] was < 1000 nM.
With `CC(=O)c1nn(CC(=O)N2C[C@H](F)C[C@H]2C(=O)Nc2cccc(Br)n2)c2ccc(-c3cnc(NC4CC4)nc3)cc12` [Compound 367, (2S,4R)-1-(2-(3-Acetyl-5-(2-(cyclopropylamino)pyrimidin-5-yl)-1H-indazol-1-yl)acetyl)-N-(6-bromopyridin-2-yl)-4-fluoropyrrolidine-2-carboxamide] the IC50 [1] was < 1000 nM.
With `CC(=O)c1nn(CC(=O)N2C[C@H](F)C[C@H]2C(=O)Nc2cncc(Cl)n2)c2ccc(-c3cnc(C)nc3)cc12` [Compound 368, (2S,4R)-1-(2-(3-Acetyl-5-(2-methylpyrimidin-5-yl)-1H-indazol-1-yl)acetyl)-N-(6-chloropyrazin-2-yl)-4-fluoropyrrolidine-2-carboxamide] the IC50 [1] was < 1000 nM.
In the case of `CC(=O)c1nn(CC(=O)N2C[C@H](F)C[C@H]2C(=O)Nc2cc(C(F)(F)F)cc(Br)n2)c2ccc(-c3cnc(C)nc3)cc12` [Compound 370, (2S,4R)-1-(2-(3-Acetyl-5-(2-methylpyrimidin-5-yl)-1H-indazol-1-yl)acetyl)-N-(6-bromo-4-(trifluoromethyl)pyridin-2-yl)-4-fluoropyrrolidine-2-carboxamide], the IC50 [1] is reported as < 1000 nM.
